# The source made the active and inactive calls. How the calls were made is not given here.
# Molecular target: RanGTP-importin-beta complex (human Ran / KPNB1)
# Test: Ran–importin-beta interaction inhibitors, confirmation, biochemical, FRET, CFP/YFP, cell-free homogeneous (AID 2823)
# Details: CFP-Ran/YFP-importin-beta FRET ratio
row,IC50,SMILES
1,> 50 µM (inactive),CCN(CC)S(=O)(=O)c1ccc(NC(=O)c2ccc(Sc3nncn3C)c([N+](=O)[O-])c2)cc1
2,1.2 µM,Cc1ccc(S(=O)(=O)c2cc3c(=O)n4cccc(C)c4nc3n(C3CCCCC3)c2=N)cc1
3,> 50 µM (inactive),CCOC(=O)C1(CC2CCCCO2)CCN(C(=O)Nc2ccc3c(c2)OCO3)CC1 (stereo unspecified)
4,> 50 µM (inactive),CCCOC(=O)CSC1=C(C#N)C(c2ccccc2OC)C(C#N)C(=O)N1 (stereo unspecified)
5,10.4 µM,O=C(Cc1cc(=O)oc2cc(O)ccc12)NCC1CCC(C(=O)O)CC1 (stereo unspecified)
6,> 50 µM (inactive),N#Cc1ccccc1NC(=O)C1CC(=O)N(c2ccc3c4c(cccc24)CC3)C1 (stereo unspecified)
7,> 50 µM (inactive),Oc1ccc(-c2[nH]ncc2-c2cccc3cccnc23)c(O)c1
8,> 50 µM (inactive),Cc1ccc(Cl)cc1N1C(=O)CC(Sc2ncccn2)C1=O (stereo unspecified)
9,26.9 µM,COc1cccc(C(=O)c2cc3ccc(O)cc3oc2=O)c1
10,> 50 µM (inactive),NC(=O)CN(Cc1ccccc1)S(=O)(=O)c1ccc2c(c1)OCCO2

# Further lines, the compound ahead of its results:
row,SMILES,IC50
1,CCN1C(=O)/C(=C2/Sc3ccccc3N2CCCS(=O)(=O)O)SC1=S,15.2 µM
2,CC(=O)O/N=C/c1c(Cl)n(C)c2ccccc12,> 50 µM (inactive)
3,CCC(C)OC(=O)C[N+](C)(C)CCOC1CC2CCC1(C)C2(C)C (stereo unspecified),> 50 µM (inactive)
4,Cc1cc(C)c2c(c1)/C(=c1/sc3n(c1=O)CN(c1ccccc1)CN=3)C(=O)N2,> 50 µM (inactive)
5,O=C(c1cc(COc2ccc(F)cc2Cl)on1)N1CCCC(c2ccccc2)C1 (stereo unspecified),> 50 µM (inactive)
6,O=[N+]([O-])c1cccc(-c2n[nH]c(=S)n2-c2ccc(Br)cc2)c1,> 50 µM (inactive)
7,COC(=O)c1n[nH]c2ccccc12,47.7 µM
8,COc1cc2c(cc1NC(=S)Nc1cccc3ccccc13)oc1ccccc12,> 50 µM (inactive)
9,Cc1ccc2nc(N3CCN(Cc4nnnn4Cc4ccccc4)CC3)c(C#N)cc2c1,23 µM
10,O=C(O)/C=C/C(=O)Nc1ccc2c(c1)NC(=O)CO2,> 50 µM (inactive)
11,COc1ccc(C(=O)Cc2cnn(-c3ccccc3)c2)c(O)c1,> 50 µM (inactive)
12,COC(=O)c1sccc1NC(=O)c1csc(C)c1,> 50 µM (inactive)
13,Cc1ccc(NC(=O)C2CCN(S(=O)(=O)c3ccc(Cl)c(C(F)(F)F)c3)CC2)nc1,> 50 µM (inactive)
14,N#CC1=C(N)SC(N)=C(C#N)C1c1cccc(O)c1,> 50 µM (inactive)
15,O=C(O)c1cn(Cc2cccnc2)c(=O)c2ccccc12,> 50 µM (inactive)
16,CCCc1n(CC(O)COCc2ccccc2)c2ccccc2[n+]1C (stereo unspecified),> 50 µM (inactive)
17,COC(=O)Nc1ccc(NC(C)=O)cc1,> 50 µM (inactive)
18,CC1C=CCC2C(=O)N(c3ccccc3OC(=O)c3cccs3)C(=O)C12 (stereo unspecified),> 50 µM (inactive)
19,NC(=O)c1ccccc1NC(=O)/C=C/c1ccc(Cl)cc1,> 50 µM (inactive)
20,COC(=O)c1ccc2nc(NC(=O)C(C)(C)C)sc2c1,> 50 µM (inactive)
21,CCOC(=O)C1=C(N)OC2=C(C(=O)CCC2)C1c1sccc1C (stereo unspecified),> 50 µM (inactive)

# Source: PubChem BioAssay AID2823 (Broad Institute, 2010)
